Laboratory results: patent publication US10293009B2, “Pharmaceutical or food composition comprising Oldenlandia brachypoda, Spergularia marina, Disporum smilacinum, Persicaria posumbu, or Geum aleppicum” (KOREA FOOD RESEARCH INSTITUTE, priority 2012, dated 2019)

Experiments:
STC-1 cells [1] = experiment: CCK secretion in STC-1 cells (EIA); assay type: cell-based; conditions: 60 minutes
Description: STC-1 cells were cultured in Dulbecco's modified Eagle's medium (DMEM) containing 10% fetal bovine serum (FBS) and 1% penicillin-streptomycin in an incubator maintained at 37° C. and 5% CO2. […] An enzyme immunoassay (EIA) kit (Phoenix Pharmaceuticals Inc., Belmont Calif.) was used.

STC-1 cells [2] = experiment: Change in Ca2+ level in STC-1 cells after inhibitor pretreatment (RR, HC-030031, TPPO, U-73122); assay type: cell-based; conditions: 0.1 mM
Description: (§1) The cells were inoculated onto a poly-D-Lysine-coated black 96-well clear-bottom plate (Thermo) at a concentration of 8.0×10^4 cells/well and incubated under the condition of 37° C. and 5% CO2. 72 hours later, the cells were incubated at 37° C. for 60 minutes using the Calcium-5 assay kit (Molecular Devices) and the change in Ca^2+ level was measured using Flexstation III. The change in Ca^2+ level was monitored for about 120 seconds at fluorescence wavelengths of 488 nm (ex) and 525 nm (em) and for 2 seconds after injecting the compound for 20 seconds.
The STC-1 cells were pretreated for 60 minutes with 100 μM ruthenium red (RR) or with 50 μM HC-030031. Then, the cells were treated with 1 mg/mL of the extract.
The STC-1 cells were pretreated for 60 minutes with 400 μM TPPO or with 20 μM U-73122.
Then, the cells were treated with 1 mg/mL of the extract.
The STC-1 cells were pretreated for 60 minutes with 100 μM ruthenium red or with 50 μM HC-030031. Then, the cells were treated with 1 mg/mL of the extract.
The STC-1 cells were pretreated for 60 minutes with 400 μM TPPO or with 20 μM U-73122. Then, the cells were treated with 1 mg/mL of the extract.

RIN14B cells [3] = experiment: Change in Ca2+ level in RIN14B cells; assay type: cell-based
Description: as §1, with “a” for “a poly-D-Lysine-coated”, “(Corning)” for “(Thermo)”, “5.0×10^4” for “8.0×10^4”, “48” for “72”

RIN14B cells [4] = experiment: 5-HT secretion in RIN14B cells after inhibitor pretreatment (RR, HC-030031); assay type: cell-based; conditions: 300 μM
Description: (§2) The cultured cells were inoculated onto a 24-well plate at a concentration of 2×10^5 cells/well and incubated under the condition of 37° C. and 5% CO2. 72 hours later, the cells were washed 2 times with 5-HT assay buffer (HBSS, 0.1% BSA, 1.25 mM CaCl2, 2 μM fluoxetine, pH 7.4) and then incubated at 37° C. for 60 minutes after adding the test substance to the 5-HT assay buffer. After the incubation, the medium was centrifuged at 10,000 rpm for 10 minutes and the resultant supernatant was stored at −70° C. for use in analysis. A Serotonin (EIA) kit (Enzo Life Sciences) was used.
The RIN14B cells were pretreated for 30 minutes with 100 μM ruthenium red (RR) or with 50 μM HC-030031. […]

RIN14B cells [5] = experiment: Change in Ca2+ level in RIN14B cells after inhibitor pretreatment (RR, HC-030031); assay type: cell-based; conditions: 300 μM
Description: as §1, with “a” for “a poly-D-Lysine-coated”, “(Corning)” for “(Thermo)”, “5.0×10^4” for “8.0×10^4”, “48” for “72”
The RIN14B cells were pretreated for 60 minutes with 100 μM ruthenium red (RR) or with 50 μM HC-030031. […]

STC-1 cells [6] = experiment: CCK secretion in STC-1 cells after inhibitor pretreatment (RR, HC-030031, TPPO, U-73122); assay type: cell-based; conditions: 0.1 mM
Description: as §2, with “HEPES” for “5-HT assay”, “(4.5 mM KCl, 1.2” for “(HBSS, 0.1% BSA, 1.25”, “1.2 mM MgCl2, 10 mM glucose, 140 mM NaCl, 20 mM HEPES-Tris,” for “2 μM fluoxetine,”, “10000” for “10,000”, “An enzyme immunoassay” for “A Serotonin”, “(Phoenix Pharmaceuticals Inc., Belmont Calif.)” for “(Enzo Life Sciences)”
The STC-1 cells were pretreated for 30 minutes with 100 μM ruthenium red (RR) or with 50 μM HC-030031. After adding 50 μg/mL of the extract, the cells were incubated at 37° C. for 60 minutes.
The STC-1 cells were pretreated for 30 minutes with 100 μM ruthenium red (RR) or with 50 μM HC-030031. After adding 500 μg/mL of the extract, the cells were incubated at 37° C. for 60 minutes.
The STC-1 cells were pretreated for 30 minutes with 400 μM TPPO or with 20 μM U-73122.
After adding 500 μg/mL of the extract, the cells were incubated at 37° C. for 60 minutes.
The STC-1 cells were pretreated for 30 minutes with 100 μM ruthenium red (RR) or with 50 μM HC-030031. Then, the cells were incubated at 37° C. for 60 minutes after adding 500 μg/mL of the extract.
Then, the cells were incubated at 37° C. for 60 minutes after adding 500 μg/mL of the extract.

STC-1 cells [7] = experiment: Change in Ca2+ level in STC-1 cells; assay type: cell-based
Description: as §1

RIN14B cells [8] = experiment: 5-HT secretion in RIN14B cells (Serotonin EIA); assay type: cell-based; conditions: 300 μM, 60 minutes
Description: RIN14B cells were cultured in RPMI medium 1640 containing 10% fetal bovine serum (FBS) and 1% penicillin-streptomycin in an incubator maintained at 37° C. and 5% CO2.
as §2

STC-1 cells [9] = experiment: Membrane potential change in STC-1 cells; assay type: cell-based
NCI-H716 cells = experiment: Intracellular cAMP in NCI-H716 cells (EIA); assay type: cell-based, Human; conditions: 20 μM
Description: The NCI-H716 cells were plated onto a 24-well culture plate at a concentration of 1×10^6 cells/mL and cultured for 3 days. On the day of the experiment, the cells were incubated with the sample in KRB buffer at 37° C. using a 5% CO2 incubator. After the incubation, the medium was removed and the cells were washed 3 times with KRB buffer. They were then incubated at 150 rpm at room temperature for 20 minutes after adding 0.5 mL of 0.1 N HCl. The incubated cells were then centrifuged at 1000 g for 10 minutes and the supernatant was analyzed by an enzyme immunoassay (EIA) using the cyclic AMP kit.

GPR119 = target: T1, GPR119 (Homo sapiens, UniProt Q8TDV5); experiment: GLP-1 secretion in NCI-H716 cells treated with GPR119 siRNA; assay type: cell-based
T1 construct: The transfection of the cells with GPR119 siRNA leads to knockdown of the GPR119 gene; endogenous in cells; host or cells: NCI-H716 cells
T1 sequence (Q8TDV5 1-335): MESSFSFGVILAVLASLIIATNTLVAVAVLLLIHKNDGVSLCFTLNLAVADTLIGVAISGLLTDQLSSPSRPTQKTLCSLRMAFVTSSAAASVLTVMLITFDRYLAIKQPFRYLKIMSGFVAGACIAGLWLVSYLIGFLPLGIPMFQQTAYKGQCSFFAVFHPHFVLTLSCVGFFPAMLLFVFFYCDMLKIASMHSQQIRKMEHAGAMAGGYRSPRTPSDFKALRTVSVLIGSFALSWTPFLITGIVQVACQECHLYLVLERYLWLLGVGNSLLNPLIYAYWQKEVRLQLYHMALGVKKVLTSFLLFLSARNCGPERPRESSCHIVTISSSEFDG
Description: The NCI-H716 cells were cultured on a 96-well plate for 3 days to a concentration of 2×10^5 cells/mL. On the day of the experiment, the cells were washed with phosphate-buffered saline (PBS) and incubated at 37° C. for 1 hour in Krebs-Ringer bicarbonate buffer (KRB, 128.8 mmol/L NaCl, 4.8 mmol/L KCl, 1.2 mmol/L KH2PO4, 1.2 mmol/L MgSO4, 2.5 mmol/L CaCl2, 5 mmol/L NaHCO3, 10 mmol/L HEPES, 0.2% BSA, pH 7.4) to which the sample was added. Then, for GLP-1 assay, the supernatant (100 μL) was taken and analyzed using an active GLP-1 ELISA kit (EGLP-35K, Millipore). The concentration of GLP-1 was calculated GLP-1 standard (pmol/mL) and the result was expressed as fold of control by comparing the concentration of GLP-1 secreted by stimulation with the sample and the concentration of GLP-1 secreted by stimulation with a control substance.
siRNA sequence targeting human α-gustducin (GNAT3, accession no. NM 001102386, Dharmacon on-target SMARTpool siRNA reagent), GPR119 ([…]/GeneBank accession no. NM_176817) and non-target SMARTpool siRNA were purchased from Dharmacon (Lafayette, Colo.). The NCI-H716 cells were transfected with the siRNAs for 48 hours using the Neon™ transfection system (Invitrogen, Carlsbad, Calif.). Then, GLP-1 secretion and the concentrations of Ca^2+ and cAMP were measured.

## C=CCN=C=S [AITC]
STC-1 cells [1]; 0.1 mM
  CCK secretion, Fold of control (mean ± S.E.M.): 21.57 ± 0.59 Fold of control
STC-1 cells [1]; 1 mM
  CCK secretion, Fold of control (mean ± S.E.M.): 21.99 ± 0.64 Fold of control
STC-1 cells [1]; 10 mM
  CCK secretion, Fold of control (mean ± S.E.M.): 25.59 ± 0.59 Fold of control
STC-1 cells [2]; HC-030031 50 μM
  Inhibition (%) of Ca^2+ change: 83.50%
STC-1 cells [2]; RR 100 μM
  Inhibition (%) of Ca^2+ change: 93.14%
STC-1 cells [2]; inhibitor: Untreated
  Change in Ca^2+ level, ΔRFU (mean ± S.E.M.): 400.52 ± 6.90 ΔRFU
STC-1 cells [2]; pretreated 50 μM HC-030031
  Change in Ca^2+ level, ΔRFU (mean ± S.E.M.): 66.07 ± 2.56 ΔRFU
STC-1 cells [2]; pretreated 100 μM RR
  Change in Ca^2+ level, ΔRFU (mean ± S.E.M.): 27.47 ± 1.77 ΔRFU
RIN14B cells [3]; 50 μM
  Change in Ca^2+ level, ΔRFU (mean ± S.E.M.): 13.44 ± 1.78 ΔRFU
RIN14B cells [3]; 300 μM
  Change in Ca^2+ level, ΔRFU (mean ± S.E.M.): 19.78 ± 4.08 ΔRFU
RIN14B cells [3]; 500 μM
  Change in Ca^2+ level, ΔRFU (mean ± S.E.M.): 22.17 ± 3.65 ΔRFU
RIN14B cells [4]; HC-030031 50 μM
  Inhibition (%) of 5-HT secretion: −11.27%
RIN14B cells [4]; RR 100 μM
  Inhibition (%) of 5-HT secretion: 55.56%
RIN14B cells [4]; inhibitor: Untreated
  5-HT secretion, Fold of control (mean ± S.E.M.): 8.11 ± 2.70 Fold of control
RIN14B cells [4]; pretreated 50 μM HC-030031
  5-HT secretion, Fold of control (mean ± S.E.M.): 9.02 ± 6.37 Fold of control
RIN14B cells [4]; pretreated 100 μM RR
  5-HT secretion, Fold of control (mean ± S.E.M.): 3.60 ± 1.80 Fold of control
RIN14B cells [5]; HC-030031 50 μM
  Inhibition (%) of Ca^2+ change: 70.31%
RIN14B cells [5]; RR 100 μM
  Inhibition (%) of Ca^2+ change: 66.36%
RIN14B cells [5]; inhibitor: Untreated
  Change in Ca^2+ level, ΔRFU (mean ± S.E.M.): 13.42 ± 1.08 ΔRFU
RIN14B cells [5]; pretreated 50 μM HC-030031
  Change in Ca^2+ level, ΔRFU (mean ± S.E.M.): 3.98 ± 0.80 ΔRFU
RIN14B cells [5]; pretreated 100 μM RR
  Change in Ca^2+ level, ΔRFU (mean ± S.E.M.): 4.51 ± 1.40 ΔRFU
STC-1 cells [6]; HC-030031 50 μM
  Inhibition (%) of CCK secretion: 52.58%
STC-1 cells [6]; RR 100 μM
  Inhibition (%) of CCK secretion: 73.21%
STC-1 cells [6]; inhibitor: Untreated
  CCK secretion, Fold of control (mean ± S.E.M.): 22.56 ± 0.65 Fold of control
STC-1 cells [6]; pretreated 50 μM HC-030031
  CCK secretion, Fold of control (mean ± S.E.M.): 10.70 ± 0.92 Fold of control
STC-1 cells [6]; pretreated 100 μM RR
  CCK secretion, Fold of control (mean ± S.E.M.): 6.04 ± 0.73 Fold of control
STC-1 cells [7]; 0.1 mM
  Change in Ca^2+ level, ΔRFU (mean ± S.E.M.): 105.41 ± 2.12 ΔRFU
STC-1 cells [7]; 1 mM
  Change in Ca^2+ level, ΔRFU (mean ± S.E.M.): 151.04 ± 5.65 ΔRFU
STC-1 cells [7]; 10 mM
  Change in Ca^2+ level, ΔRFU (mean ± S.E.M.): 168.68 ± 5.79 ΔRFU
RIN14B cells [8]
  5-HT secretion, Fold of control (mean ± S.E.M.): 8.11 ± 2.70 Fold of control

## [Cl-].[K+] [KCl]
STC-1 cells [9]; 0.1 mM
  Membrane potential change, ΔRFU (mean ± SEM): 17.01 ± 0.93 ΔRFU
STC-1 cells [9]; 1 mM
  Membrane potential change, ΔRFU (mean ± SEM): 35.08 ± 3.43 ΔRFU
STC-1 cells [9]; 10 mM
  Membrane potential change, ΔRFU (mean ± SEM): 270.08 ± 9.57 ΔRFU

## CCCCCCCC/C=C\CCCCCCCC(=O)NCCO [OEA (oleoylethanolamide), oleoylethanolamide]
NCI-H716 cells
  cAMP (fold of control): 6.813 ± 1.634 fold of control
GPR119; 20 μM, GPR119 siRNA
  GLP-1 secretion (fold of control) GPR119 siRNA: 2.975 ± 0.241 fold of control
GPR119; 20 μM, control siRNA
  GLP-1 secretion (fold of control) Control siRNA: 4.822 ± 0.358 fold of control
GPR119; NCI-H716
  inhibition at 20 µM: 38.3%
